Calls of active or inactive are those of the source.
How the values were obtained:
Type in all cases: functional, cell-based
LNCaP [1] = test: Cytotoxicity against human LNCAP cells assessed as reduction in cell viability at 10 uM after 24 hrs by trypan blue dye exclusion assay
LNCaP [2] = test: Induction of apoptosis in human LNCAP cells assessed as increase in cleaved PARP expression at 500 ug/ml measured after 24 hrs by western blot analysis
LNCaP [3] = test: Induction of apoptosis in human LNCAP cells assessed as up regulation of p53 expression at 10 uM measured after 24 hrs by immunoblot analysis
LNCaP [4] = test: Induction of apoptosis in human LNCAP cells assessed as up regulation of p21 expression at 10 uM measured after 24 hrs by immunoblot analysis
LNCaP [5] = test: Induction of apoptosis in human LNCAP cells assessed as increase in cleaved PARP expression at 10 uM measured after 24 hrs by Western blot analysis
LNCaP [6] = test: Induction of apoptosis in human LNCAP cells assessed as decrease in uncleaved PARP expression at 10 uM measured after 24 hrs by Western blot analysis

Measured: Activity

CC[C@@]1(O)C(=O)OCc2c1cc1n(c2=O)Cc2cc3c(CN(C)C)c(O)ccc3nc2-1
active: LNCaP [1] | LNCaP [2] | LNCaP [3] | LNCaP [4] | LNCaP [5] | LNCaP [6]

Reference: ChEMBL document CHEMBL4616599, “Molecular mechanism of C-phycocyanin induced apoptosis in LNCaP cells” (Bioorg Med Chem, 2020)
